In PubChem BioAssay (NCI):
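Each compound was tested at five concentrations against cells in 96-well plates for 48 hours. GI50 is the concentration that inhibits growth by half. TGI is the concentration that stops growth completely.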

Experiments:
Test in all cases: inhibition of tumour cell growth, NCI panel, 48 h
786-0 renal = test system: 786-0 renal
SNB-75 CNS = test system: SNB-75 CNS
SK-MEL-5 melanoma = test system: SK-MEL-5 melanoma
HCT-15 colon = test system: HCT-15 colon
BT-549 breast = test system: BT-549 breast
NCI-H226 lung = test system: NCI-H226 lung
MOLT-4 leukemia = test system: MOLT-4 leukemia
OVCAR-5 ovarian = test system: OVCAR-5 ovarian
CCRF-CEM leukemia = test system: CCRF-CEM leukemia
M14 melanoma = test system: M14 melanoma
COLO 205 colon = test system: COLO 205 colon
T-47D breast = test system: T-47D breast
U251 CNS = test system: U251 CNS
K-562 leukemia = test system: K-562 leukemia
SR leukemia = test system: SR leukemia
NCI-H522 lung = test system: NCI-H522 lung
HOP-92 NSCLC = test system: HOP-92 NSCLC
NCI-H460 lung = test system: NCI-H460 lung
SNB-19 CNS = test system: SNB-19 CNS
IGROV1 ovarian = test system: IGROV1 ovarian
TK-10 renal = test system: TK-10 renal
NCI/ADR-RES ovarian = test system: NCI/ADR-RES ovarian
SK-MEL-28 melanoma = test system: SK-MEL-28 melanoma
RXF 393 renal = test system: RXF 393 renal
CAKI-1 renal = test system: CAKI-1 renal
MDA-MB-231 breast = test system: MDA-MB-231 breast
NCI-H23 lung = test system: NCI-H23 lung
SK-OV-3 ovarian = test system: SK-OV-3 ovarian
A498 renal = test system: A498 renal

**Q.** With `C=C(C)C(=O)Oc1ccc(N=Nc2ccc(C)cc2)ccc1=O` as the molecule, how does the GI50 (786-0 renal) read?
**A.** 4.96 µM

**Q.** And the TGI (786-0 renal)?
**A.** 17.8 µM

**Q.** What about the GI50 (SNB-75 CNS) of the same molecule?
**A.** 2.66 µM

**Q.** What about the TGI (SNB-75 CNS) of the same molecule?
**A.** 10.3 µM

**Q.** And the GI50 (SK-MEL-5 melanoma)?
**A.** 4 µM

**Q.** What about the TGI (SK-MEL-5 melanoma) of the same molecule?
**A.** 15.2 µM

**Q.** And the GI50 (HCT-15 colon)?
**A.** 3.55 µM

**Q.** And the TGI (HCT-15 colon)?
**A.** 18.5 µM

**Q.** And the GI50 (BT-549 breast)?
**A.** 6.63 µM

**Q.** What about the TGI (BT-549 breast) of the same molecule?
**A.** 21.3 µM

**Q.** And the GI50 (NCI-H226 lung)?
**A.** 3.57 µM

**Q.** And the TGI (NCI-H226 lung)?
**A.** 18.6 µM

**Q.** What about the GI50 (MOLT-4 leukemia) of the same molecule?
**A.** 2.57 µM

**Q.** And the TGI (MOLT-4 leukemia)?
**A.** 8.18 µM

**Q.** And the GI50 (OVCAR-5 ovarian)?
**A.** 8.26 µM

**Q.** What about the TGI (OVCAR-5 ovarian) of the same molecule?
**A.** 21.8 µM

**Q.** And the GI50 (CCRF-CEM leukemia)?
**A.** 2.24 µM

**Q.** And the TGI (CCRF-CEM leukemia)?
**A.** 9.36 µM

**Q.** And the GI50 (M14 melanoma)?
**A.** 3.21 µM

**Q.** And the TGI (M14 melanoma)?
**A.** 12.7 µM

**Q.** And the GI50 (COLO 205 colon)?
**A.** 3.58 µM

**Q.** And the TGI (COLO 205 colon)?
**A.** 14.6 µM

**Q.** And the GI50 (T-47D breast)?
**A.** 3.14 µM

**Q.** And the TGI (T-47D breast)?
**A.** 14.7 µM

**Q.** What about the GI50 (U251 CNS) of the same molecule?
**A.** 3.11 µM

**Q.** And the TGI (U251 CNS)?
**A.** 12.7 µM

**Q.** What about the GI50 (K-562 leukemia) of the same molecule?
**A.** 3.36 µM

**Q.** What about the TGI (K-562 leukemia) of the same molecule?
**A.** 13.6 µM

**Q.** And the GI50 (SR leukemia)?
**A.** 2.47 µM

**Q.** What about the TGI (SR leukemia) of the same molecule?
**A.** 8.28 µM

**Q.** And the GI50 (NCI-H522 lung)?
**A.** 4.95 µM

**Q.** And the TGI (NCI-H522 lung)?
**A.** 18.1 µM

**Q.** And the GI50 (HOP-92 NSCLC)?
**A.** 3.64 µM

**Q.** And the TGI (HOP-92 NSCLC)?
**A.** 16.1 µM

**Q.** What about the GI50 (NCI-H460 lung) of the same molecule?
**A.** 2.85 µM

**Q.** What about the TGI (NCI-H460 lung) of the same molecule?
**A.** 10.2 µM

**Q.** What about the GI50 (SNB-19 CNS) of the same molecule?
**A.** 3.68 µM

**Q.** What about the TGI (SNB-19 CNS) of the same molecule?
**A.** 21.8 µM

**Q.** What about the GI50 (IGROV1 ovarian) of the same molecule?
**A.** 2.54 µM

**Q.** And the TGI (IGROV1 ovarian)?
**A.** 9.15 µM

**Q.** And the GI50 (TK-10 renal)?
**A.** 10.7 µM

**Q.** What about the TGI (TK-10 renal) of the same molecule?
**A.** 82.4 µM

**Q.** What about the GI50 (NCI/ADR-RES ovarian) of the same molecule?
**A.** 3.14 µM

**Q.** What about the TGI (NCI/ADR-RES ovarian) of the same molecule?
**A.** 11.4 µM

**Q.** What about the GI50 (SK-MEL-28 melanoma) of the same molecule?
**A.** 3.39 µM

**Q.** What about the TGI (SK-MEL-28 melanoma) of the same molecule?
**A.** 11.7 µM

**Q.** And the GI50 (RXF 393 renal)?
**A.** 3.93 µM

**Q.** What about the TGI (RXF 393 renal) of the same molecule?
**A.** 14.8 µM

**Q.** And the GI50 (CAKI-1 renal)?
**A.** 2.26 µM

**Q.** What about the TGI (CAKI-1 renal) of the same molecule?
**A.** 5.6 µM

**Q.** What about the GI50 (MDA-MB-231 breast) of the same molecule?
**A.** 4.84 µM

**Q.** And the TGI (MDA-MB-231 breast)?
**A.** 22 µM

**Q.** What about the GI50 (NCI-H23 lung) of the same molecule?
**A.** 4.52 µM

**Q.** What about the TGI (NCI-H23 lung) of the same molecule?
**A.** 17.8 µM

**Q.** What about the GI50 (SK-OV-3 ovarian) of the same molecule?
**A.** 4.72 µM

**Q.** And the TGI (SK-OV-3 ovarian)?
**A.** 27.7 µM

**Q.** What about the GI50 (A498 renal) of the same molecule?
**A.** 3.72 µM
